Source: patent US11370798B2 (Vertex Pharmaceuticals Incorporated, priority 2012, dated 2022)

System: HCT116 colorectal cancer cells
Assay: Cisplatin sensitization assay (96 h cell viability MTS);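 also: Test-compound concentration that lowers the Cisplatin IC50 by a set fold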
Format: cell-based
Settings: compound and Cisplatin added simultaneously, Cisplatin sensitization value
How it was run: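 Compound and cisplatin added together as a full matrix of 2-fold serial dilutions from a top final concentration of 10 μM; cells incubated 96 h at 37° C, 5% CO2. Viability then read by MTS after 1 h further incubation; sensitization value reported in μM bins.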

Structure (SMILES)	Cisplatin Sensitization Assay
CN1CCN(CC2CCN(c3c(F)cncc3NC(=O)c3c(N)nn4cc(F)cnc34)CC2)C(=O)C1 [I-N-193, 2-amino-6-fluoro-N-(5-fluoro-4-(4-((4-methyl-2-oxopiperazin-1-yl)methyl)piperidin-1-yl)pyridin-3-yl)pyrazolo[1,5-a]pyrimidine-3-carboxamide]	+++ (Cisplatin sensitization value of <0.02 μM)
CN1CC(C(=O)N2CCN(c3c(F)cncc3NC(=O)c3c(N)nn4cc(F)cnc34)CC2)C1 [I-N-194]	+++ (Cisplatin sensitization value of <0.02 μM)
Nc1nn2cc(F)cnc2c1C(=O)Nc1cnccc1N1CCN(S(=O)(=O)C2COC2)CC1 [I-N-195, 2-amino-6-fluoro-N-(4-(4-(oxetan-3-ylsulfonyl)piperazin-1-yl)pyridin-3-yl)pyrazolo[1,5-a]pyrimidine-3-carboxamide]	+++ (Cisplatin sensitization value of <0.02 μM)
Nc1nn2cc(F)cnc2c1C(=O)Nc1cnccc1N1CCC(S(=O)(=O)N2CCN3CCC2CC3)CC1 [I-N-196, N-(4-(4-(1,4-diazabicyclo[3.2.2]nonan-4-ylsulfonyl)piperidin-1-yl)pyridin-3-yl)-2-amino-6-fluoropyrazolo[1,5-a]pyrimidine-3-carboxamide]	+++ (Cisplatin sensitization value of <0.02 μM)
Nc1nn2cc(F)cnc2c1C(=O)Nc1cnccc1N1CCC(CN2CCC(F)(F)C2)CC1 [I-N-197, 2-amino-N-(4-(4-((3,3-difluoropyrrolidin-1-yl)methyl)piperidin-1-yl)pyridin-3-yl)-6-fluoropyrazolo[1,5-a]pyrimidine-3-carboxamide]	+++ (Cisplatin sensitization value of <0.02 μM)
CN1CCC[C@H]1C(=O)N1CCN(c2ccncc2NC(=O)c2c(N)nn3cc(F)cnc23)CC1 [I-N-198, (S)-2-amino-6-fluoro-N-(4-(4-(1-methylpyrrolidine-2-carbonyl)piperazin-1-yl)pyridin-3-yl)pyrazolo[1,5-a]pyrimidine-3-carboxamide]	++ (Cisplatin sensitization value>0.02 μM but <0.2 μM)
CN1CCC[C@@H]1C(=O)N1CCN(c2ccncc2NC(=O)c2c(N)nn3cc(F)cnc23)CC1 [I-N-199, (R)-2-amino-6-fluoro-N-(4-(4-(1-methylpyrrolidine-2-carbonyl)piperazin-1-yl)pyridin-3-yl)pyrazolo[1,5-a]pyrimidine-3-carboxamide]	+++ (Cisplatin sensitization value of <0.02 μM)
Nc1nn2cc(F)cnc2c1C(=O)Nc1cnccc1N1CCC(S(=O)(=O)C2COC2)CC1 [I-N-200, 2-amino-6-fluoro-N-(4-(4-(oxetan-3-ylsulfonyl)piperidin-1-yl)pyridin-3-yl)pyrazolo[1,5-a]pyrimidine-3-carboxamide]	+++ (Cisplatin sensitization value of <0.02 μM)
Nc1nn2cc(F)cnc2c1C(=O)Nc1cncc(F)c1N1CCN(S(=O)(=O)C2COC2)CC1 [I-N-201]	+++ (Cisplatin sensitization value of <0.02 μM)
Nc1nn2cc(F)cnc2c1C(=O)Nc1cnccc1-n1ccnc1C1CC1 [I-N-202, 2-amino-N-(4-(2-cyclopropyl-1H-imidazol-1-yl)pyridin-3-yl)-6-fluoropyrazolo[1,5-a]pyrimidine-3-carboxamide]	+++ (Cisplatin sensitization value of <0.02 μM)
Nc1nn2cc(F)cnc2c1C(=O)Nc1cncc(F)c1N1CCN(C(=O)C2CC3CCCCN3C2)CC1 (stereo not shown) [I-N-203, 2-amino-6-fluoro-N-(5-fluoro-4-(4-(octahydroindolizine-2-carbonyl)piperazin-1-yl)pyridin-3-yl)pyrazolo[1,5-a]pyrimidine-3-carboxamide]	+++ (Cisplatin sensitization value of <0.02 μM)
CC(C)N1CCCC1C(=O)N1CCN(c2c(F)cncc2NC(=O)c2c(N)nn3cc(F)cnc23)CC1 (stereo not shown) [I-N-205, 2-amino-6-fluoro-N-(5-fluoro-4-(4-(1-isopropylpyrrolidine-2-carbonyl)piperazin-1-yl)pyridin-3-yl)pyrazolo[1,5-a]pyrimidine-3-carboxamide]	++ (Cisplatin sensitization value>0.02 μM but <0.2 μM)
CC(C)N1CCC(C(=O)N2CCN(c3c(F)cncc3NC(=O)c3c(N)nn4cc(F)cnc34)CC2)C1 (stereo not shown) [I-N-206, 2-amino-6-fluoro-N-(5-fluoro-4-(4-(1-isopropylpyrrolidine-3-carbonyl)piperazin-1-yl)pyridin-3-yl)pyrazolo[1,5-a]pyrimidine-3-carboxamide]	+++ (Cisplatin sensitization value of <0.02 μM)
COCCS(=O)(=O)C1CCN(c2ccncc2NC(=O)c2c(N)nn3cc(F)cnc23)CC1 [I-N-208, 2-amino-6-fluoro-N-(4-(4-((2-methoxyethyl)sulfonyl)piperidin-1-yl)pyridin-3-yl)pyrazolo[1,5-a]pyrimidine-3-carboxamide]	+++ (Cisplatin sensitization value of <0.02 μM)
CN1CCN(c2ccncc2NC(=O)c2c(N)nn3cc(F)cnc23)CC1=O [I-N-209, 2-amino-6-fluoro-N-(4-(4-methyl-3-oxopiperazin-1-yl)pyridin-3-yl)pyrazolo[1,5-a]pyrimidine-3-carboxamide]	+++ (Cisplatin sensitization value of <0.02 μM)
Nc1nn2cc(F)cnc2c1C(=O)Nc1cnccc1N1CCS(=O)(=O)CC1 [I-N-210, 2-amino-N-(4-(1,1-dioxidothiomorpholino)pyridin-3-yl)-6-fluoropyrazolo[1,5-a]pyrimidine-3-carboxamide]	+++ (Cisplatin sensitization value of <0.02 μM)
Nc1nn2cc(F)cnc2c1C(=O)Nc1cncc(F)c1N1CCN(C(=O)C2CCN(C3COC3)CC2)CC1 [I-N-211, 2-amino-6-fluoro-N-(5-fluoro-4-(4-(1-(oxetan-3-yl)piperidine-4-carbonyl)piperazin-1-yl)pyridin-3-yl)pyrazolo[1,5-a]pyrimidine-3-carboxamide]	++ (Cisplatin sensitization value>0.02 μM but <0.2 μM)
CN1CCN(c2c(F)cncc2NC(=O)c2c(N)nn3cc(F)cnc23)CC1=O [I-N-212, 2-amino-6-fluoro-N-(5-fluoro-4-(4-methyl-3-oxopiperazin-1-yl)pyridin-3-yl)pyrazolo[1,5-a]pyrimidine-3-carboxamide]	+++ (Cisplatin sensitization value of <0.02 μM)
Nc1nn2cc(F)cnc2c1C(=O)Nc1cncc(F)c1N1CCC(CN2CCCC2=O)CC1 [I-N-213, 2-amino-6-fluoro-N-(5-fluoro-4-(4-((2-oxopyrrolidin-1-yl)methyl)piperidin-1-yl)pyridin-3-yl)pyrazolo[1,5-a]pyrimidine-3-carboxamide]	+++ (Cisplatin sensitization value of <0.02 μM)
CN1CCCCC1C(=O)N1CCN(c2c(F)cncc2NC(=O)c2c(N)nn3cc(F)cnc23)CC1 (stereo not shown) [I-N-214, 2-amino-6-fluoro-N-(5-fluoro-4-(4-(1-methylpiperidine-2-carbonyl)piperazin-1-yl)pyridin-3-yl)pyrazolo[1,5-a]pyrimidine-3-carboxamide]	++ (Cisplatin sensitization value>0.02 μM but <0.2 μM)
CS(=O)(=O)CC1CCN(c2ccncc2NC(=O)c2c(N)nn3cc(F)cnc23)CC1 [I-N-215, 2-amino-6-fluoro-N-(4-(4-((methylsulfonyl)methyl)piperidin-1-yl)pyridin-3-yl)pyrazolo[1,5-a]pyrimidine-3-carboxamide]	+++ (Cisplatin sensitization value of <0.02 μM)
CN1CC2(CCN(c3ccncc3NC(=O)c3c(N)nn4cc(F)cnc34)CC2)OC1=O [I-N-216, 2-amino-6-fluoro-N-(4-(3-methyl-2-oxo-1-oxa-3,8-diazaspiro[4.5]decan-8-yl)pyridin-3-yl)pyrazolo[1,5-a]pyrimidine-3-carboxamide]	+++ (Cisplatin sensitization value of <0.02 μM)
Nc1nn2cc(F)cnc2c1C(=O)Nc1cnccc1N1CCN2C(=O)CC[C@H]2C1 [I-N-217, (S)-2-amino-6-fluoro-N-(4-(6-oxohexahydropyrrolo[1,2-a]pyrazin-2(1H)-yl)pyridin-3-yl)pyrazolo[1,5-a]pyrimidine-3-carboxamide]	++ (Cisplatin sensitization value>0.02 μM but <0.2 μM)
Cc1nc(C)n(-c2ccncc2NC(=O)c2c(N)nn3cc(F)cnc23)n1 [I-N-218, 2-amino-N-(4-(3,5-dimethyl-1H-1,2,4-triazol-1-yl)pyridin-3-yl)-6-fluoropyrazolo[1,5-a]pyrimidine-3-carboxamide]	+ (Cisplatin sensitization value>0.2 μM but <5 μM)
Nc1nn2cc(F)cnc2c1C(=O)Nc1cnccc1-n1ccnc1C(F)(F)F [I-N-219, 2-amino-6-fluoro-N-(4-(2-(trifluoromethyl)-1H-imidazol-1-yl)pyridin-3-yl)pyrazolo[1,5-a]pyrimidine-3-carboxamide]	+++ (Cisplatin sensitization value of <0.02 μM)
CC1(C)CCCN1c1ccncc1NC(=O)c1c(N)nn2cc(F)cnc12 [I-N-220, 2-amino-N-(4-(2,2-dimethylpyrrolidin-1-yl)pyridin-3-yl)-6-fluoropyrazolo[1,5-a]pyrimidine-3-carboxamide]	++ (Cisplatin sensitization value>0.02 μM but <0.2 μM)
CS(=O)(=O)C1CCCN(c2ccncc2NC(=O)c2c(N)nn3cc(F)cnc23)C1 (stereo not shown) [I-N-221, 2-amino-6-fluoro-N-(4-(3-(methylsulfonyl)piperidin-1-yl)pyridin-3-yl)pyrazolo[1,5-a]pyrimidine-3-carboxamide]	++ (Cisplatin sensitization value>0.02 μM but <0.2 μM)
Nc1nn2cc(F)cnc2c1C(=O)Nc1cnccc1N1CC(=O)N2CCCC2C1 (stereo not shown) [I-N-222, 2-amino-6-fluoro-N-(4-(4-oxohexahydropyrrolo[1,2-a]pyrazin-2(1H)-yl)pyridin-3-yl)pyrazolo[1,5-a]pyrimidine-3-carboxamide]	++ (Cisplatin sensitization value>0.02 μM but <0.2 μM)
